From PubChem BioAssay (NCI)
“And” between values parts separate entries of the source, which are not always exact repeats. Equal entries are not always repeated.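 Protocol summary: plate cells (96-well), add compound at 5 concentrations, incubate 48 h, interpolate endpoints linearly. GI50 = concentration required for 50% inhibition of growth. Definition used: TGI = concentration required for complete inhibition of growth.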

How the values were obtained:
Assay in all cases: NCI tumour cell line growth inhibition, 48 h
A549 NSCLC = tested on: A549 NSCLC
COLO 205 colon = tested on: COLO 205 colon
HCC-2998 colon = tested on: HCC-2998 colon
HOP-92 NSCLC = tested on: HOP-92 NSCLC
HS 578T breast = tested on: HS 578T breast
K-562 leukemia = tested on: K-562 leukemia
MOLT-4 leukemia = tested on: MOLT-4 leukemia
RPMI-8226 leukemia = tested on: RPMI-8226 leukemia
UACC-257 melanoma = tested on: UACC-257 melanoma
UACC-62 melanoma = tested on: UACC-62 melanoma

| SMILES | GI50 (A549 NSCLC) | TGI (A549 NSCLC) | GI50 (COLO 205 colon) | TGI (COLO 205 colon) | GI50 (HCC-2998 colon) | TGI (HCC-2998 colon) | GI50 (HOP-92 NSCLC) | TGI (HOP-92 NSCLC) | GI50 (HS 578T breast) | TGI (HS 578T breast) | GI50 (K-562 leukemia) | TGI (K-562 leukemia) | GI50 (MOLT-4 leukemia) | TGI (MOLT-4 leukemia) | GI50 (RPMI-8226 leukemia) | TGI (RPMI-8226 leukemia) | GI50 (UACC-257 melanoma) | TGI (UACC-257 melanoma) | GI50 (UACC-62 melanoma) | TGI (UACC-62 melanoma) |
| --- | --- | --- | --- | --- | --- | --- | --- | --- | --- | --- | --- | --- | --- | --- | --- | --- | --- | --- | --- | --- |
| NC(=O)c1cc(-c2ccc(F)cc2)cc(-c2ccncc2)c1N | > 25 µM | > 25 µM | > 25 µM | > 25 µM | > 25 µM | > 25 µM | 23 µM | > 25 µM | 5.66 µM | > 23.4 µM | > 25 µM | > 25 µM | > 25 µM | > 25 µM | > 25 µM | > 25 µM | > 25 µM | > 25 µM | > 25 µM | > 25 µM |
| CCn1cc(C(=O)O)c(=O)c2cc3c(cc21)S(=O)(=O)CC3 |  | > 100 µM |  | > 100 µM |  | > 100 µM |  | > 100 µM |  | > 100 µM |  | > 100 µM |  | > 100 µM |  | > 100 µM |  | > 100 µM |  | > 100 µM |
| CCCCCCCCCCCC1CCCC(C)N1 (configuration not stated) | 13.4 µM | 32.7 µM and 164 µM | 1.56 µM |  | 2.05 µM |  | 6.67 µM | 31.8 µM and 90.2 µM | 8.6 µM | 26.2 µM | 1.96 µM |  | 1.79 µM |  | 1.66 µM |  | 10.3 µM | 24.4 µM and 119 µM | 8.12 µM | 23.6 µM and 102 µM |
| CC[C@@H](C(=O)[C@@H](C)[C@@H](O)[C@H](C)[C@@H]1O[C@@H]([C@@H](CC)C(=O)N(CC)CC)CC[C@@H]1C)C1O[C@]2(C=CC(=O)[C@]3(CC[C@@](C)([C@H]4CC[C@](O)(CC)[C@H](C)O4)O3)O2)[C@H](C)C[C@@H]1C (some centres not stated) | 3.21 µM | > 100 µM | 2.35 µM | 5.4 µM | 1.97 µM | 4.79 µM | 1.35 µM | 4.6 µM | 2.68 µM | 16.1 µM | 2.89 µM | > 100 µM | 2.66 µM | 8.06 µM | 2.12 µM | 6.42 µM | 3.17 µM | 19.9 µM | 1.83 µM | 5.81 µM |
| N#CSCC1CC(O)(c2ccccc2)CC(c2ccc(F)cc2)O1 (configuration not stated) | 3.86 µM | 18.5 µM | 2.02 µM | 4.25 µM | 4.02 µM | 17.6 µM | 1.93 µM | 6.05 µM | 1.96 µM | 4.6 µM | 2.14 µM | 7.31 µM | 0.674 µM | 3.51 µM | 1.64 µM | 4.65 µM | 3.29 µM | 11.9 µM | 2.14 µM | 6.12 µM |
| COc1ccc(/C(C#N)=C/c2ccc(OC)c(OC)c2)cc1 |  | > 100 µM |  | > 100 µM |  | > 100 µM |  | > 100 µM |  | > 100 µM |  | > 100 µM |  | > 100 µM |  | > 100 µM |  | > 100 µM |  | > 100 µM |
| Fc1ccc(Nc2nc3nonc3nc2Nc2ccc(F)cc2)cc1 | 0.354 µM | 11.4 µM | 0.342 µM | 1.43 µM | 0.414 µM | 5.49 µM | 0.168 µM | 0.629 µM | 0.37 µM | 4.03 µM | 0.352 µM | 12.4 µM | 0.356 µM | 1.65 µM | 0.207 µM | 0.697 µM | 0.401 µM | 3.16 µM | 0.283 µM | 3.22 µM |
| O=C(NCc1ccc(Cn2c(=O)sn(-c3ccccc3)c2=O)cc1)OCc1ccc2c(Br)cc(Br)c(O)c2n1 | 1.51 µM | 3.78 µM | 0.399 µM | 1.79 µM | 1.8 µM | 3.41 µM | 0.379 µM | 1.84 µM | 1.62 µM | 4.9 µM | 0.322 µM | > 100 µM | 0.503 µM | > 22.3 µM | 0.312 µM | 1.72 µM | 1.26 µM | 2.74 µM | 1.03 µM | 2.24 µM |
| COc1cc2c3c(n(CCCI)c(=O)c2cc1OC)-c1cc2c(cc1C3=O)OCO2 | 2.5 µM | > 100 µM | 9.17 µM | > 100 µM | 5.61 µM | > 100 µM | > 100 µM | > 100 µM | > 100 µM | > 100 µM | 2.27 µM | > 100 µM | 0.126 µM | > 100 µM | 3.76 µM | > 100 µM | 3.77 µM | 49.4 µM | 0.202 µM | 1.91 µM |
| CC1(C)[C@@H](O[C@@H]2OC[C@@H](O[C@@H]3O[C@H](CO)[C@@H](O)[C@H](O)[C@H]3O[C@@H]3OC[C@@H](O)[C@H](O)[C@H]3O)[C@H](O)[C@H]2O[C@@H]2O[C@H](CO)[C@@H](O)[C@H](O)[C@H]2O)CC[C@]2(C)[C@H]3CC[C@]45OC[C@@]6(CC[C@](C)(C=O)C[C@H]64)[C@H](O)C[C@@]5(C)[C@]3(C)CC[C@@H]12 | 0.943 µM | 1.95 µM | 1.02 µM | 2.01 µM | 0.931 µM | 1.75 µM | 0.704 µM | 1.54 µM | 0.995 µM | 2.4 µM | 1.81 µM | 5.51 µM | 0.962 µM | 2.31 µM | 1.12 µM | 2.56 µM | 0.92 µM | 1.83 µM | 0.909 µM | 1.81 µM |
| O=C(NP(=O)(N1CC1)N1CC1)c1cc(I)ccc1I |  | > 100 µM |  | > 100 µM |  | > 100 µM |  | > 100 µM |  | > 100 µM |  | > 100 µM |  | > 100 µM |  | > 100 µM |  | > 100 µM |  | 57.6 µM |
| Cc1cc(Cl)ccc1NC(=O)c1cc2ccccc2cc1O | 0.931 µM | > 100 µM | 6.46 µM | 30.5 µM | 3.92 µM | > 100 µM | 0.146 µM | 0.545 µM | 1.31 µM | > 100 µM | 0.419 µM | > 100 µM | 0.651 µM | > 36.2 µM | 0.294 µM | 1.18 µM | 0.611 µM | 3.84 µM | 0.354 µM | > 100 µM |
| CC(=O)O[C@]1(C(C)=O)CC[C@H]2[C@@H]3C=C(C)C4=CC(=O)CC[C@]4(C)[C@H]3CC[C@@]21C | > 78.1 µM | > 100 µM | > 100 µM | > 100 µM | > 100 µM | > 100 µM | 14.8 µM | > 100 µM | > 60.4 µM | > 100 µM | 20.7 µM | > 100 µM | 43.2 µM | > 100 µM | 2.78 µM | > 100 µM | > 89.2 µM | > 100 µM | > 71.8 µM | > 100 µM |
| COc1ccc2c(c1)n([O-])c1ccccc1[n+]2=O |  | > 100 µM and 44.7 µM |  | > 100 µM and 74.7 µM |  | > 100 µM |  | > 100 µM | > 100 µM and 30.4 µM | > 100 µM | 42.6 µM and 15.6 µM | > 100 µM |  | > 100 µM |  | 97.1 µM and > 100 µM | 46.5 µM and 17.9 µM | > 100 µM and 40.2 µM |  | > 100 µM and 65 µM |
| CN1c2ccccc2C(C)(C)C12C=Cc1cc(O)ccc1O2 (configuration not stated) | 4.46 µM | 19.9 µM | 1.9 µM | 3.88 µM | 4.22 µM | 9.47 µM | 1.81 µM | 5.88 µM | 1.97 µM | 5.17 µM | 3.09 µM | > 100 µM | 4.5 µM | > 100 µM | 1.71 µM | 4.91 µM | 2.94 µM | 12.1 µM | 2.56 µM | 11.5 µM |
| COc1cc(/C=C/C(=O)c2ccc(NC(=O)CN3CCN(c4cc5c(cc4F)c(=O)c(C(=O)O)cn5C4CC4)CC3)cc2)cc(OC)c1OC | 0.368 µM | 2.14 µM | 1.34 µM | 8.11 µM | 3.16 µM | 14.1 µM | 1.79 µM | 7.58 µM | 16.3 µM | > 100 µM | 0.36 µM | > 100 µM | 1.27 µM | > 100 µM | 0.31 µM |  | 1.42 µM | 65.4 µM | 0.887 µM | 3.39 µM |
| CSc1ccc(NC(=S)NN(C)C)cc1 |  | > 10 µM |  | > 10 µM |  | > 10 µM |  | > 10 µM |  | > 10 µM |  | > 10 µM |  | > 10 µM |  | > 10 µM |  | > 10 µM |  | > 10 µM |
